A word on the IC50: it is the concentration at which inhibition is half-maximal. High values mean lower potency, low ones higher potency.

Read-outs that look alike come from different tables or passages of the source. Some results are limits rather than exact numbers.

For one assay, the system named is Vk*MYC multiple myeloma. The assay can be described thus: Vk*MYC mouse model of multiple myeloma. The assay is classed as in vivo. Particulars: mice receiving only two doses, one week apart. From the text: A genetic rearrangement of the MYC locus, resulting in dysregulated expression of MYC, is the most common mutation in human multiple myeloma. The genetically engineered Vk*MYC mouse model is based on dysregulation of MYC, and has been extensively validated as a clinically and biologically faithful model of untreated multiple myeloma. Nine drugs or classes of drugs (DNA alkylators, glucocorticoids, proteasome inhibitors, IMiDs, nab-paclitaxel, histone deacetylase inhibitors, TACI-Ig, perifosine and SNS-032, a CDK2, 7, 9 inhibitor) have been previously reported with more than a 20% partial response rate in Vk*MYC MM. Among those, the first five also have greater than 20% PR in patients with multiple myeloma for a positive predictive value of 56%.

For assay [1], the system named is T98G, U251MG and U87MG glioblastoma cell lines. The assay can be described thus: Radiotherapy and EDO-S101 against glioblastoma cell lines in vitro, surviving fraction. Particulars: radiotherapy in combination with EDO-S101 (5 μM or 10 μM) compared to radiotherapy alone. The format is cell-based. The procedure: FIG. 15 is a plot of % surviving fraction of in vitro T98G, U251MG and U87MG glioblastoma cell lines against dose of radiotherapy (Gy) in combination with two different concentrations of the compound of formula I (EDO-S101) against a control with radiotherapy alone.

Assay [2] relates to U87G glioblastoma cell line. The assay can be described thus: IC50 against glioblastoma cell line U87G. The format is cell-based.
The test system of assay [3] is U251MG glioblastoma cell line. The assay can be described thus: IC50 against glioblastoma cell line U251MG. The assay is classed as cell-based.
Assay [4] deals with Vk12653 transplant model of relapsed/refractory multiple myeloma. The assay can be described thus: Vk12653 transplant model of relapsed/refractory multiple myeloma. The assay is classed as in vivo. As to conditions: very aggressive, multi-drug resistant model.
The test system of assay [5] is T98G glioblastoma cell line. The assay can be described thus: IC50 against glioblastoma cell line T98G. The format is cell-based.
Assay [6] deals with U251MG mouse xenograft model. The assay can be described thus: U251MG subcutaneously inoculated xenograft, time to progression. The assay is classed as in vivo. The procedure:
(§1) Subcutaneously Inoculated Xenografts
(§2) • Vehicle (control) • Radiotherapy (2Gy/5 consecutive days) • Temozolamide (16 mg/Kg for 5 consecutive days, po) • Temozolamide+radiotherapy • EDO-S101 (60 mg/Kg at day 1, 8 and 15 every 28 days, iv) • EDO-S101+radiotherapy

In assay [7] the test system is U87MG mouse xenograft model. The assay can be described thus: U87MG subcutaneously inoculated xenograft, time to progression. The assay is classed as in vivo. The method, then:
as §1, §2

The test system of assay [8] is multiple myeloma cell lines. As to conditions: WO-A-2010/085377; in vitro; cited from earlier work.
[9] abbreviates: combination with radiotherapy (2Gy/5 consecutive days), temozolamide 16 mg/Kg 5 consecutive days po, EDO-S101 60 mg/Kg day 1, 8, 15 iv.
Setting [10] is: drug alone, EDO-S101 60 mg/Kg at day 1, 8 and 15 every 28 days, iv.
[11] abbreviates: unit not given for temozolamide.

On to `Cn1c(CCCCCCC(=O)NO)nc2cc(N(CCCl)CCCl)ccc21` [EDO-S101], for which, in the assay on Vk*MYC multiple myeloma, the duration of response entry is reported as “more than three months”. Further, the rate of response result in the assay with Vk*MYC multiple myeloma is reported as “high rate of response”. Besides, the “% survival rate for the glioblastoma cells (FIG. 15)” value in assay [1] is “considerably reduced”. Besides, the IC50 was determined as 1.36 µM in [2]; 6.6 µM in assay [3] (Homo sapiens, U-251); 7.7 µM in [5] (Homo sapiens). Moreover, the single agent activity result in assay [4] is “single agent activity”. For the same molecule, the “time to progression of the tumours” value in assay [6] (setting [9]) is “over 50 days”; in assay [6] (setting [10]), “over 50 days”; in assay [7] (setting [9]), “over 50 days”; in [7] (setting [10]), 40 days. For the same molecule, the “activity relative to the activity shown by bendamustin” value in assay [8] is recorded as 35-100 ×.

`Cn1c(CCCC(=O)O)nc2cc(N(CCCl)CCCl)ccc21` [bendamustin]: the IC50 in assay [2] came to 50 µM; in assay [3] it was 30 µM; in [5], 52 µM.

Take `Cn1nnc2c(C(N)=O)ncn2c1=O` [temozolamide]: the values for the IC50 in assay [2] (setting [11]), in [3] (setting [11]) and in assay [5] (setting [11]) were 20 µM, 20 µM and greater than 100 µM, respectively. Also, the “time to progression of the tumours” value in assay [6] (mouse, in vivo) stood at 42 days; in assay [7] (mouse, in vivo) it was 35 days.

(Values after patent publication US12403130B2, “Pharmaceutical combinations for treating cancer” (Purdue Pharmaceutical Products L.P., priority 2014, dated 2025).)
